Data taken from PubChem BioAssay (NCI).
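Growth conditions: 96-well plates. Treatment: test compound, 48 hours, 5 concentrations. Analysis: linear interpolation between bracketing concentrations; unreached endpoints set to highest concentration. TGI denotes the concentration required for complete inhibition of growth.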

What was measured:
Experiment in all cases: growth of human tumour cells (NCI), 48 h
NCI-H460 lung = system: NCI-H460 lung
M14 melanoma = system: M14 melanoma
MDA-MB-435 = system: MDA-MB-435
SF-268 CNS = system: SF-268 CNS
TK-10 renal = system: TK-10 renal
SN12C renal = system: SN12C renal
HL-60(TB) leukemia = system: HL-60(TB) leukemia
MDA-MB-231 breast = system: MDA-MB-231 breast
HOP-62 NSCLC = system: HOP-62 NSCLC
EKVX NSCLC = system: EKVX NSCLC
ACHN renal = system: ACHN renal
UO-31 renal = system: UO-31 renal
SF-295 CNS = system: SF-295 CNS
MOLT-4 leukemia = system: MOLT-4 leukemia
U251 CNS = system: U251 CNS
SNB-75 CNS = system: SNB-75 CNS
CCRF-CEM leukemia = system: CCRF-CEM leukemia
SNB-19 CNS = system: SNB-19 CNS
A549 NSCLC = system: A549 NSCLC
UACC-62 melanoma = system: UACC-62 melanoma
HS 578T breast = system: HS 578T breast
HCT-116 colon = system: HCT-116 colon
T-47D breast = system: T-47D breast
BT-549 breast = system: BT-549 breast
SK-MEL-2 melanoma = system: SK-MEL-2 melanoma
786-0 renal = system: 786-0 renal
COLO 205 colon = system: COLO 205 colon
IGROV1 ovarian = system: IGROV1 ovarian
PC-3 prostate = system: PC-3 prostate
OVCAR-8 ovarian = system: OVCAR-8 ovarian
NCI-H23 lung = system: NCI-H23 lung
SK-MEL-5 melanoma = system: SK-MEL-5 melanoma
HCT-15 colon = system: HCT-15 colon
MCF7 breast = system: MCF7 breast
OVCAR-4 ovarian = system: OVCAR-4 ovarian
K-562 leukemia = system: K-562 leukemia
MALME-3M melanoma = system: MALME-3M melanoma
HCC-2998 colon = system: HCC-2998 colon
RPMI-8226 leukemia = system: RPMI-8226 leukemia
RXF 393 renal = system: RXF 393 renal
HT29 colon = system: HT29 colon
SF-539 CNS = system: SF-539 CNS
DU-145 prostate = system: DU-145 prostate
SK-MEL-28 melanoma = system: SK-MEL-28 melanoma
MDA-N = system: MDA-N
SW-620 colon = system: SW-620 colon
SR leukemia = system: SR leukemia
OVCAR-3 ovarian = system: OVCAR-3 ovarian
SK-OV-3 ovarian = system: SK-OV-3 ovarian
NCI-H226 lung = system: NCI-H226 lung
LOX IMVI melanoma = system: LOX IMVI melanoma
OVCAR-5 ovarian = system: OVCAR-5 ovarian
KM12 colon = system: KM12 colon
HOP-92 NSCLC = system: HOP-92 NSCLC
A498 renal = system: A498 renal
CAKI-1 renal = system: CAKI-1 renal
NCI-H522 lung = system: NCI-H522 lung
UACC-257 melanoma = system: UACC-257 melanoma

Measured: TGI

O=c1n(CCO)nc2n1CCCN2
not listed: A498 renal | CAKI-1 renal | NCI-H522 lung | UACC-257 melanoma
> 100 µM: all other assays above

CC(C)(Oc1ccc(C2C[C@H]2Cl)cc1)C(=O)O (stereo partly specified)
not listed: M14 melanoma | SF-268 CNS | ACHN renal | UO-31 renal | CCRF-CEM leukemia | OVCAR-8 ovarian | NCI-H23 lung | MALME-3M melanoma | HCC-2998 colon | HT29 colon | NCI-H226 lung
> 100 µM: all other assays above
